Experimental findings from patent US8426408B2, “Pyrimidine inhibitors of kinases” (AbbVie Inc., priority 2009, dated 2013) are described below.

Test [1] relates to NCI-H1299 cells. As to the kind of experiment: Induction of polyploidy in H1299. Format: cell-based, Human. Conditions: NCI-H1299, 48 hours; for EC15: Homo sapiens, read-out: EC15 (concentration of inhibitor necessary to induce polyploidy in 15% of cells). Here is the method: To determine the induction of polyploidy in H1299 cells, NCI-H1299 were seeded (4K/well) into 96-well culture plates (tissue culture grade, black, flat-clear bottom) and incubated overnight to produce cell-to-plate adherence. Inhibitors at varying concentrations were added into duplicate wells containing cells and culture media (RPMI 1640, 10% fetal calf serum) and incubated at 37 C for 48 hours. The plates were then washed with PBS and the adherent cells fixed by incubating with 3% formalin for 1 hour. After washing four times with PBS, the cells were then stained with Hoechst and subjected to fluorescent (360 i/460e) microscopic high content analysis to determine the effect of inhibitors on nuclear size. Polyploid cells (≧4N) were defined as those having nuclear area>750μ^2. Potency was expressed as the concentration of inhibitor necessary to induce polyploidy in 15% of cells (EC15) and was calculated from least squares analysis of the log dose-response.

Test [2] addresses T1, KDR (Homo sapiens, UniProt P35968). Description: KDR cellular assay (KDR receptor phosphorylation ELISA). Conditions: KDR transfected 3T3 (embryonic mouse) cells, VEGF stimulated; read-out: IC50 inhibition of KDR phosphorylation. It is filed as cell-based. On the set-up: expressed in transfected cells; host or cells: 3T3 (embryonic mouse) cells. In outline:
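KDR-transfected mouse 3T3 cells treated 20 min at 37° C with half-log compound dilutions, then stimulated 10 min with VEGF (100 ng/ml solution). Lysates captured on anti-KDR plates; phosphorylation by biotin antibody/streptavidin-HRP ELISA at 450 nm. IC50 by non-linear regression.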
A general note: In an ELISA, binding on a coated surface is turned into a signal by an enzyme label.
Target sequence in this assay (P35968 20-1356): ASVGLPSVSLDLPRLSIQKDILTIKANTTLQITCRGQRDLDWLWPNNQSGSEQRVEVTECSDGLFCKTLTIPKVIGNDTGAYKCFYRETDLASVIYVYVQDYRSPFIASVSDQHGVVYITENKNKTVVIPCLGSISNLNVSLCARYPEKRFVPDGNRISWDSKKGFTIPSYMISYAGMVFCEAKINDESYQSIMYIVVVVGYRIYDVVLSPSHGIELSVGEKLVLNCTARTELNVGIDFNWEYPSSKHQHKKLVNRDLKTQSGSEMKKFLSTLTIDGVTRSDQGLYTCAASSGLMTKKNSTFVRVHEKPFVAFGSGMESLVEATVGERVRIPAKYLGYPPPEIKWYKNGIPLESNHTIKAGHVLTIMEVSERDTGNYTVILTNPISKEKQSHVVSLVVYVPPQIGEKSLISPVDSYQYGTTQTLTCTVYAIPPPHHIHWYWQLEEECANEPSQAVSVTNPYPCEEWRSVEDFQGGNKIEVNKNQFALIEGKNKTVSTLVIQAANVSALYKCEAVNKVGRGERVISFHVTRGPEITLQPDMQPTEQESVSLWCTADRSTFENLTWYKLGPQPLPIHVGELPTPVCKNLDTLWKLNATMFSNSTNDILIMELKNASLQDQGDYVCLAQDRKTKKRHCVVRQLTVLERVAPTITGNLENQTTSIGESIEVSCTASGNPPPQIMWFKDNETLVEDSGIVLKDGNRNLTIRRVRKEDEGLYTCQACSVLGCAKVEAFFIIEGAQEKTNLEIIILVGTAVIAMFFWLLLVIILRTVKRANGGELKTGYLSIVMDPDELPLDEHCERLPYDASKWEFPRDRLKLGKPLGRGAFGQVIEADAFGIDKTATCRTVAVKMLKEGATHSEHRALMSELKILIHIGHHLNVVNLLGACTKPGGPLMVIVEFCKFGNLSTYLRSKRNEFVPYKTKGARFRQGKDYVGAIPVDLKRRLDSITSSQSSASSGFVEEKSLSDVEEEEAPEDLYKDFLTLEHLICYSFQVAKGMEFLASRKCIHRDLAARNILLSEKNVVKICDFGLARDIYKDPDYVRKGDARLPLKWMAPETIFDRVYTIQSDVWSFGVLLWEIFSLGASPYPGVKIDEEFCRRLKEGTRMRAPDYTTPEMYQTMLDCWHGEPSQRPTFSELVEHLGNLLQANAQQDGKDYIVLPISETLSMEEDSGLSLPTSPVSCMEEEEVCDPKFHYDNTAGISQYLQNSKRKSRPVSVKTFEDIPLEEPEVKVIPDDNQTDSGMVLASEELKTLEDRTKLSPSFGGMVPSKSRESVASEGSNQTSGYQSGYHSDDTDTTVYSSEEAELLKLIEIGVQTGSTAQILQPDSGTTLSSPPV

Test [3] addresses T1, KDR. Description: KDR HTRF in vitro kinase assay. Format: biochemical. On the set-up: purified enzyme (His6-KDR 789-1354, MW 63 kD); His6 (N). Conditions: 1 mM ATP; read-out: KDR enzyme inhibition data (Ki). In outline: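 His6-KDR 789-1354 (7 ng/well) with 0.5 μM biotinylated peptide substrate and 1 mM ATP in HEPES pH 7.1, MgCl2/MnCl2, 60 min at room temperature. EDTA-quenched, detected by streptavidin-XL-665 plus Eu-kryptate anti-phosphotyrosine HTRF after 3 h; IC50 from 620/665 nm ratio.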
Target sequence in this assay (P35968 789-1354): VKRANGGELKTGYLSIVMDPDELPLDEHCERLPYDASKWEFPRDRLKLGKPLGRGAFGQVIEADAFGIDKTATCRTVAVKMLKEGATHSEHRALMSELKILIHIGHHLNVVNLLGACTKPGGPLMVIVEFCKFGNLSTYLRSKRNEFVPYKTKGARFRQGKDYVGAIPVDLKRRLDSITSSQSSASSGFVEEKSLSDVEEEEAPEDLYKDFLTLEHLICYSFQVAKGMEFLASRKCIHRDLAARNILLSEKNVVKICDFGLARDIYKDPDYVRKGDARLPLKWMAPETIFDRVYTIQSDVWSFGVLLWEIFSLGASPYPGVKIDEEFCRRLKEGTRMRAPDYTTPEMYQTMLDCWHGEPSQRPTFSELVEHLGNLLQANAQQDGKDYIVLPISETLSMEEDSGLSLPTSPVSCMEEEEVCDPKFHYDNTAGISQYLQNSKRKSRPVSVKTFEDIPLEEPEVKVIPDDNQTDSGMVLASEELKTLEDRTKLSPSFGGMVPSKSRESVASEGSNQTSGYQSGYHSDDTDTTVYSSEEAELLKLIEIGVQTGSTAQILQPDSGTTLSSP
(Time-resolved FRET reads energy transfer from a long-lived donor to a nearby acceptor.)

`C[C@@H](O)Cn1cc(Nc2ncc(Cl)c(N[C@@H]3[C@H]4CC[C@H](C4)[C@@H]3C(N)=O)n2)cn1` [Example 104, (1R,2S,3R,4S)-3-{[5-chloro-2-({1-[(2R)-2-hydroxypropyl]-1H-pyrazol-4-yl}amino)pyrimidin-4-yl]amino}bicyclo[2.2.1]heptane-2-carboxamide]: in test [1], the EC15 is less than 100 nM. Also, in test [2], the IC50 was 100 to 1000 nM. Moreover, the Ki in test [3] was less than 100 nM.

Regarding `COc1cccc(Cn2cc(Nc3ncc(Br)c(N[C@H]4[C@@H](C(N)=O)[C@@H]5C=C[C@H]4C5)n3)cn2)c1` [Example 159, (1S,2S,3R,4R)-3-[(5-bromo-2-{[1-(3-methoxybenzyl)-1H-pyrazol-4-yl]amino}pyrimidin-4-yl)amino]bicyclo[2.2.1]hept-5-ene-2-carboxamide], the EC15 in test [1] was less than 100 nM. In addition, the 50% inhibitory concentration (IC50) in test [2] was less than 100 nM. Further, in test [3], the inhibition constant Ki is less than 100 nM.

Consider `CCn1cc(Nc2ncc(Cl)c(N[C@@H]3[C@@H]4CC[C@@H](C4)[C@@H]3C(N)=O)n2)cn1.CCn1cc(Nc2ncc(Cl)c(N[C@H]3[C@H]4CC[C@H](C4)[C@H]3C(N)=O)n2)cn1` (mixture of isomers) [Example 114, (1R,2R,3S,4S)-3-({5-chloro-2-[(1-ethyl-1H-pyrazol-4-yl)amino]pyrimidin-4-yl}amino)bicyclo[2.2.1]heptane-2-carboxamide and (1S,2S,3R,4R)-3-({5-chloro-2-[(1-ethyl-1H-pyrazol-4-yl)amino]pyrimidin-4-yl}amino)bicyclo[2.2.1]heptane-2-carboxamide], for which the “EC15 (concentration of inhibitor necessary to induce polyploidy in 15% of cells)” value in test [1] is recorded as “A (“A” represents an EC15 of less than 0.1 μM)”. In test [2], the IC50 was in the range of 100 to 1000 nM. For the same compound, the Ki in test [3] was less than 100 nM.

For the compound `NC(=O)[C@@H]1[C@H](Nc2nc(Nc3cnn(CC(=O)O)c3)ncc2Cl)[C@H]2C=C[C@@H]1C2` [Example 103, {4-[(4-{[(1R,2R,3S,4S)-3-carbamoylbicyclo[2.2.1]hept-5-ene-2-yl]amino}-5-chloropyrimidin-2-yl)amino]-1H-pyrazol-1-yl}acetic acid], in test [1], the EC15 is less than 100 nM. Besides, the IC50 in test [2] lay in the range of 100 to 1000 nM. For the same compound, in test [3], the Ki is less than 100 nM.

With `CN1CCN(CCn2cc(Nc3ncc(Cl)c(N[C@H]4[C@@H](C(N)=O)[C@@H]5C=C[C@H]4C5)n3)cn2)CC1` [Example 91, (1S,2S,3R,4R)-3-{[5-chloro-2-({1-[2-(4-methylpiperazin-1-yl)ethyl]-1H-pyrazol-4-yl}amino)pyrimidin-4-yl]amino}bicyclo[2.2.1]hept-5-ene-2-carboxamide], in test [1], the EC15 is less than 100 nM. For the same compound, the IC50 in test [2] was less than 100 nM. For the same compound, the Ki in test [3] is less than 100 nM.

As for `Cn1cc(Nc2ncc(C(F)(F)F)c(N[C@@H]3[C@H](C(N)=O)[C@H]4C=C[C@@H]3C4)n2)cn1.Cn1cc(Nc2ncc(C(F)(F)F)c(N[C@H]3[C@@H](C(N)=O)[C@@H]4C=C[C@H]3C4)n2)cn1` (mixture of isomers) [Example 10, (1S,2S,3R,4R)-3-{[2-[(1-methyl-1H-pyrazol-4-yl)amino]-5-(trifluoromethyl)pyrimidin-4-yl]amino}bicyclo[2.2.1]hept-5-ene-2-carboxamide and (1R,2R,3S,4S)-3-{[2-[(1-methyl-1H-pyrazol-4-yl)amino]-5-(trifluoromethyl)pyrimidin-4-yl]amino}bicyclo[2.2.1]hept-5-ene-2-carboxamide], in test [1], the “EC15 (concentration of inhibitor necessary to induce polyploidy in 15% of cells)” value is on record as “A (“A” represents an EC15 of less than 0.1 μM)”. In addition, the 50% inhibitory concentration (IC50) in test [2] was less than 100 nM. For the same compound, the inhibitory constant (Ki) in test [3] is less than 100 nM.

As for `C[C@@H](O)Cn1cc(Nc2ncc(Cl)c(N[C@H]3[C@@H](C(N)=O)[C@@H]4C=C[C@H]3C4)n2)cn1` [Example 105, (1S,2S,3R,4R)-3-{[5-chloro-2-({1-[(2R)-2-hydroxypropyl]-1H-pyrazol-4-yl}amino)pyrimidin-4-yl]amino}bicyclo[2.2.1]hept-5-ene-2-carboxamide], the EC15 in test [1] was less than 100 nM. The IC50 in test [2] was less than 100 nM. Also, the inhibition constant (Ki) in test [3] was less than 100 nM.

For the compound `CC(C)NC(=O)C1CCCC1Nc1nc(Nc2cnn(C3CCNCC3)c2)ncc1Cl` (racemic) [Example 163, (1S,2R)-2-[(5-chloro-2-{[1-(piperidin-4-yl)-1H-pyrazol-4-yl]amino}pyrimidin-4-yl)amino]-N-isopropylcyclopentanecarboxamide and (1R,2S)-2-[(5-chloro-2-{[1-(piperidin-4-yl)-1H-pyrazol-4-yl]amino}pyrimidin-4-yl)amino]-N-isopropylcyclopentanecarboxamide], the “EC15 (concentration of inhibitor necessary to induce polyploidy in 15% of cells)” value in test [1] is recorded as “A (“A” represents an EC15 of less than 0.1 μM)”. Moreover, the IC50 in test [2] was 100 to 1000 nM. For the same compound, the Ki in test [3] lay in the range of 100 to 1000 nM.

Take `CN(C)CC(=O)N1CCC(n2cc(Nc3ncc(Cl)c(N[C@H]4[C@@H](C(N)=O)[C@@H]5C=C[C@H]4C5)n3)cn2)CC1` [Example 89, (1S,2S,3R,4R)-3-{[5-chloro-2-({1-[1-(N,N-dimethylglycyl)piperidin-4-yl]-1H-pyrazol-4-yl}amino)pyrimidin-4-yl]amino}bicyclo[2.2.1]hept-5-ene-2-carboxamide]: in test [1], the EC15 was less than 100 nM. In test [2], the IC50 is less than 100 nM. The inhibition constant Ki in test [3] is less than 100 nM.

Consider `CC(C)n1cc(Nc2ncc(Br)c(N[C@H]3[C@@H](C(N)=O)[C@@H]4C=C[C@H]3C4)n2)cn1` [Example 112, (1S,2S,3R,4R)-3-({5-bromo-2-[(1-isopropyl-1H-pyrazol-4-yl)amino]pyrimidin-4-yl}amino)bicyclo[2.2.1]hept-5-ene-2-carboxamide], for which, in test [1], the EC15 is less than 100 nM. Besides, the IC50 in test [2] was less than 100 nM. Moreover, the Ki in test [3] was less than 100 nM.

Turning to `Cc1c(Nc2ncc(Cl)c(N[C@H]3[C@@H](C(N)=O)[C@@H]4C=C[C@H]3C4)n2)cnn1C` [Example 169, (1S,2S,3R,4R)-3-({5-chloro-2-[(1,5-dimethyl-1H-pyrazol-4-yl)amino]pyrimidin-4-yl}amino)bicyclo[2.2.1]hept-5-ene-2-carboxamide], the EC15 in test [1] is less than 100 nM. In addition, the IC50 in test [2] is less than 100 nM. Besides, the Ki in test [3] was less than 100 nM.

`NC(=O)[C@@H]1[C@H](Nc2nc(Nc3cnn(CCc4ccccc4)c3)ncc2Cl)[C@H]2C=C[C@@H]1C2` [Example 143, (1S,2S,3R,4R)-3-[(5-chloro-2-{[1-(2-phenylethyl)-1H-pyrazol-4-yl]amino}pyrimidin-4-yl)amino]bicyclo[2.2.1]hept-5-ene-2-carboxamide]: in test [1], the EC15 is less than 100 nM. For the same compound, in test [2], the IC50 was less than 100 nM. Moreover, the inhibition constant Ki in test [3] was less than 100 nM.

Turning to `CC(O)Cn1cc(Nc2ncc(C(F)(F)F)c(NC3C4CCC(C4)C3C(N)=O)n2)cn1` (mixture of isomers) [Example 21, (1S,2R,3S,4R)-3-{[2-({1-[(2R)-2-hydroxypropyl]-1H-pyrazol-4-yl}amino)-5-(trifluoromethyl)pyrimidin-4-yl]amino}bicyclo[2.2.1]heptane-2-carboxamide and (1R,2S,3R,4S)-3-{[2-({1-[(2R)-2-hydroxypropyl]-1H-pyrazol-4-yl}amino)-5-(trifluoromethyl)pyrimidin-4-yl]amino}bicyclo[2.2.1]heptane-2-carboxamide], in test [1], the “EC15 (concentration of inhibitor necessary to induce polyploidy in 15% of cells)” value is “A (“A” represents an EC15 of less than 0.1 μM)”. The IC50 in test [2] was in the range of 100 to 1000 nM. Further, the Ki in test [3] lay in the range of 100 to 1000 nM.

As a reminder, the IC50 is the concentration needed to halve the response being measured. As usually defined, the Ki is a measure of affinity in units of concentration, obtained from inhibition or displacement.
